Laboratory results as given in patent US20250051301A1, “MUTANT IDH1 AND IDH2 INHIBITOR AND APPLICATION THEREOF” (Betta Pharmaceuticals Co., Ltd, priority 2022, published 2025).
Converted amounts (≈) assume the structure as drawn.

How the values were obtained:
IDH1^R132H [1] = molecular target: T1, IDH1^R132H (Homo sapiens, UniProt O75874, R132H); assay: Enzyme activity inhibition assay (fluorescence-based), IDH1 R132H; type: biochemical; conditions: numeric values
Experimental: The inhibitory ability of the compounds on the enzyme activities of IDH1^R132H and IDH2^R140Qwas detected and expressed as the half inhibitory concentration (IC50) value. AG-881 was used as a positive control compound. In this experiment, compounds were screened on enzymes IDH1^R132H and IDH2^R140Q using a fluorescence-based method (initial concentration: 10000 nM, 3-fold dilution, 10 concentrations, and single-well detection). • (1) Preparation of 1×assay buffer. • (2) Preparation of compound concentration gradient: the compounds to be tested were assayed at an initial concentration of 10000 nM, with 3-fold dilution and 10 concentrations, and diluted into 200-fold the final concentration in 100% DMSO solution in a 384-well plate. • (3) 250 nL of DMSO and 250 nL of diluted compounds were transferred to a reaction plate with Echo 550. • (4) IDH2^R140Q enzyme detection: 25 μL of an IDH2^R140Q enzyme solution was added, and the mixture was incubated for 60 minutes; then 25 μL of a substrate solution was added, and the mixture was incubated for 150 minutes; then 25 μL of a detection buffer was added, and the mixture was shaken for 1 minute and incubated for 60 minutes; and finally, Synergy 2, Ex544/Em590 cutoff 590 was used for reading. • (5) IDH1^R132H enzyme detection: 40 μL of a mixture solution of an IDH1^R132H enzyme at the 1.25-fold final concentration and NADPH was added, and the mixture was incubated for 60 minutes; then 10 μL of a substrate solution at the 5-fold final concentration was added, and the mixture was incubated for 90 minutes; then 25 μL of a detection buffer at the 3-fold final concentration was added, and the mixture was shaken for 1 minute. and finally, Synergy 2, Ex544/Em590 cutoff 590 was used for reading. • (8) Inhibition rate calculation, formula: % Inhibition=(RFU_sample−RFU_min)/(RFU_max−RFU_min)*100%, wherein RFU-sample represents the fluorescence intensity of a sample; RFU-min represents the average value of negative control wells and represents the fluorescence intensity with an enzyme; and RFU-max represents the average value of positive control wells and represents the fluorescence intensity without an enzyme. The curve fitting was performed using Graphpad Prism software to obtain IC50 values, and the test results were as shown in table 2.

IDH1^R132H [2] = molecular target: T1, IDH1^R132H; assay: 2-HG assay in cells (U87 cell line stably transfected with IDH1-R132H); type: cell-based; conditions: 72 hours, numeric values, read-out: 2-HG in medium (IC50, nM) (IDH1^R132H)
Experimental: The compounds were detected for the inhibition of 2-HG production in the U87 cell line stably transfected with IDH1-R132H and the culture supernatant of TF-1 cells stably transfected with IDH2-R140Q. • (1) The cultured cells were collected by centrifugation, then suspended in a cell culture solution, counted, and seeded in a 96-well cell culture plate at 160 μL of cell suspension/well (20000 cells/well for U87-IDH1-R132H; 10000 cells/well for TF-1-IDH2-R140Q). • (2) A 96-well plate dilution was taken, and the compounds to be tested were diluted in a gradient manner in DMSO and a cell culture solution; and then 40 μL of the gradient-diluted compounds to be tested were added to the 96-well plate on which cells have been plated. […] Finally, the plate was cultured in a 37° C. incubator containing 5% CO2. • (3) After the compounds were incubated with the cells for 72 hours, the cell culture plate was taken out and centrifuged at 1500 rpm for 5 minutes, and then 100 μL of the medium supernatant was aspirated for 2-HG detection. • (4) 2-HG detection: the cell supernatant was diluted with purified water, 30 μL of the diluted sample was taken into a 1.5 ml centrifuge tube, and 200 μL of the internal standard solution was added. The mixture was mixed uniformly by vortex and centrifuged at 3200 rpm at 4° C. for 15 minutes. 100 μL of the supernatant solution was diluted with water at a 1:1 ratio and then detected by LC-MS. Analyte Peak Area was used to represent the 2-HG levels. • (5) Inhibition rate calculation, formula: % Inhibition=(1−Analyte Peak Area_sample/Analyte Peak Area_max)*100%, wherein Analyte Peak Area_sample represents the Analyte Peak Area of the sample to which the compound was added; Analyte Peak Area_max represents the average value of Analyte Peak Area of positive control wells (representing the absence of the compound). The curve fitting was performed using Graphpad Prism software to obtain IC50 values, and the test results were as shown in table 2.

[3] = Kinetic solubility experiment; type: physicochemical; conditions: buffer, kinetic from dmso stock
Experimental: 1. Preparation of Solutions/Buffers at Different pH Values
• Solution A: 17.42 g of K2HPO4 was weighed and dissolved in 1 L of ultrapure water. • Solution B: 13.65 g of KH2PO4 was weighed and dissolved in 1 L of ultrapure water.
A certain mass of substance to be tested was accurately weighed and dissolved in a certain volume of DMSO to obtain a 20 mM or 10 mM stock solution.
An acetonitrile stopping solution containing 1 ng/mL of labetalol and glibenclamide was prepared.
3. Incubation System (n=3)
The above-mentioned solutions were placed in a 96-well plate, respectively and shaken in a thermostatic oscillator for 2 hours (37° C., 150 rpm).
4. Control solution: 200 μM control solution of the substance to be tested was prepared in methanol. 5. Sample treatment
At a predetermined time, the 96-well plate was placed in a centrifuge and centrifuged at 4100 rpm for 15 minutes. A certain volume of the supernatant and a certain volume of control solution were respectively taken into 19 times volume of water containing 70% acetonitrile that has been previously added. The mixture was uniformly mixed, diluted 20 times with an internal standard stop solution and shaken in a thermostatic oscillator at 700 rpm at room temperature for 5 min. Further dilution may be necessary depending on the sensitivity of the compound, and sample analysis was performed by LC-MS/MS.
The ratio of compound peak area to internal standard peak area was used for calculation. According to the concentration relationship between the compound in the buffer and the control solution, the calculated concentration was the kinetic solubility, and the calculation formula was as follows:
Solubility(μg/mL)=mass spectral peak area of the compound to be tested in buffers at different pHs×200μM×molecular weight of the compound to be tested(MW)/mass spectral peak area of the compound to be tested in methanol/1000;

T1 sequence (O75874 whole entry R132H): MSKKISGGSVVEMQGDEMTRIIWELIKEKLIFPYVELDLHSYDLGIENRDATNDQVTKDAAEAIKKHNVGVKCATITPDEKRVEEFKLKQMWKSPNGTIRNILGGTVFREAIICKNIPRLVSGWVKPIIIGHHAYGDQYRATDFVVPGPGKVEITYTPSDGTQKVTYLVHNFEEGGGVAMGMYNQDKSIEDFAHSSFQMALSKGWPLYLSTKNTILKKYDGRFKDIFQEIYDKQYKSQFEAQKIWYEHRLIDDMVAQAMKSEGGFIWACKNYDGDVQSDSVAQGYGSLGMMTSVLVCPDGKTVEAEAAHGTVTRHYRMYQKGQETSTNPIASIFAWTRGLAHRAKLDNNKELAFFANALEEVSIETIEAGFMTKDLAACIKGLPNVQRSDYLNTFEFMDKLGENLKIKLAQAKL

IC50 (IDH1^R132H [1]): 8 nM
IC50 (IDH1^R132H [2]): 0.5 nM
solubility at 2 h ([3]; aqueous buffer, pH = 3.0, 37° C.): 53.3 µg/mL (≈ 119 µM)
solubility at 2 h ([3]; aqueous buffer, pH = 5.0, 37° C.): 59.5 µg/mL (≈ 133 µM)
solubility at 2 h ([3]; aqueous buffer, pH = 7.4, 37° C.): 48.1 µg/mL (≈ 107 µM)
solubility at 2 h ([3]; simulated gastric fluid, pH = 1.0, 37° C.): 86.6 µg/mL (≈ 193 µM)
SMILES: C[C@@H](Nc1nc(N[C@H](C)C(F)(F)F)nc(-c2cc(F)c(N)c(Cl)n2)n1)C(F)(F)F [Example 5, 6-(5-amino-6-chloro-4-fluoropyridin-2-yl)-N^2,N^4-bis((R)-1,1,1-trifluoropropyl-2-yl)-1,3,5-triazine-2,4-diamine]
